How the values were obtained:
[1] = test system: mouse; details: Carcinogenicity, b6c3f1, Oral, Feed, dose end: 58 week, group: systemic
[2] = test system: rat; details: Carcinogenicity, fischer, Oral, Feed, dose end: 78 week, group: systemic
[3] = test system: mouse; details: Subchronic oral toxicity in rodents, swiss albino, Gavage/Intubation, dose end: 14 day, group: systemic
[4] = test system: rat; details: Multigenerational reproductive toxicity study, sprague dawley, Oral, Feed, dose end: 2 generation
[5] = test system: mouse; details: Combined chronic toxicity/carcinogenicity, other, Oral, Feed, dose end: 24 month, group: systemic
[6] = test system: rat; details: Prenatal developmental toxicity study, wistar, Oral, Gavage/Intubation, dose end: 16 GD
[7] = test system: mouse; details: Carcinogenicity, other, Oral, Feed, dose end: 24 month, group: systemic
[8] = test system: mouse; details: Subchronic oral toxicity in rodents, cd1, Feed, dose end: 13 week, group: systemic, systemic / hematology / hemoglobin (hgb) / hemoglobin (hgb) + systemic / hematology / mean corpuscular hemoglobin concentration (mchc) / …
[9] = test system: dog; details: Chronic toxicity, beagle, Oral, Feed, dose end: 54 week, group: systemic
[10] = test system: rat; details: Combined chronic toxicity/carcinogenicity, sprague dawley, Oral, Feed, dose end: 24 month, group: systemic
[11] = test system: rat; details: Subchronic oral toxicity in rodents, sprague dawley, Feed, dose end: 90 day
[12] = test system: rat; details: Combined chronic toxicity/carcinogenicity; sprague dawley; Oral; Feed; dose end: 104 week; group: systemic; systemic / in life observation / body weight / body weight gain + systemic / pathology microscopic / blood vessel / aneurysm + systemic / …
[13] = test system: rat; details: Carcinogenicity; other; Oral; Feed; dose end: 82 week; group: systemic; systemic / in life observation / clinical signs / fur (altered appearance) + systemic / in life observation / clinical signs / hunched …
[14] = test system: rat; details: Combined chronic toxicity/carcinogenicity, sprague dawley, Oral, Feed, dose end: 113 week, group: systemic
[15] = test system: mouse; details: Multigenerational reproductive toxicity study; cd1; Oral; Feed; dose end: 1 generation; group: offspring; systemic / in life observation / body weight / offspring (pup) weight
[16] = test system: rat; details: Prenatal developmental toxicity study; other; Oral; Water; dose end: 19 GD; group: maternal; systemic / in life observation / water consumption / water consumption
[17] = test system: rat; details: Prenatal developmental toxicity study; other; Oral; Gavage/Intubation; dose end: 19 GD; group: maternal; systemic / in life observation / food consumption / food consumption
[18] = test system: mouse; details: Combined chronic toxicity/carcinogenicity, cd1, Oral, Feed, dose end: 104 week, group: systemic
[19] = test system: mouse; details: Developmental neurotoxicity study; cd1; Injection; Subcutaneous; dose end: 35 PND; group: cannot be grouped; developmental / developmental landmark / eye opening / eye opening + systemic / in life observation / clinical signs / [other] + systemic / …
[20] = test system: mouse; details: Prenatal developmental toxicity study, cd1, Oral, Gavage/Intubation, dose end: 16 GD
[21] = test system: rat; details: Developmental neurotoxicity study; other; Oral; Water; dose end: 20 PND; group: cannot be grouped; systemic / in life observation / body weight / body weight gain + systemic / in life observation / food consumption / food consumption + …
[22] = test system: mouse; details: Chronic toxicity, b6c3f1, Oral, Feed, dose end: 2 year, group: systemic
[23] = test system: rat; details: Combined chronic toxicity/carcinogenicity, fischer, Oral, Feed, dose end: 2 year, group: systemic
[24] = test system: mouse; details: Subchronic oral toxicity in rodents, cd1, Feed, dose end: 14 week, group: systemic
[25] = test system: mouse; details: Subchronic oral toxicity in rodents, b6c3f1, Feed, dose end: 14 week, group: systemic, systemic / organ weight / liver / absolute + systemic / organ weight / liver / relative to body weight + systemic / pathology microscopic / …
[26] = test system: mouse; details: Chronic toxicity; cd1; Oral; Feed; dose end: 57 week; group: systemic; systemic / pathology microscopic / heart / amyloid deposition + systemic / pathology microscopic / liver / eosinophilic focus + systemic / …
[27] = systemic / pathology microscopic / liver / hyperplasia
[28] = systemic / pathology microscopic / liver / hyperplasia + systemic / pathology microscopic / liver / adenoma + systemic / pathology …
[29] = systemic / pathology microscopic / liver / neoplastic nodule
[30] = systemic / hematology / sulphemoglobin / sulphemoglobin
[31] = systemic / hematology / sulphemoglobin / sulphemoglobin + systemic / hematology / heinz body / heinz body + systemic / hematology / …
[32] = group: offspring, systemic / in life observation / body weight / offspring (pup) weight
[33] = group: parental, systemic / hematology / lymphocyte / lymphocyte + systemic / hematology / platelet / platelet + systemic / organ weight / spleen / nos + …
[34] = systemic / in life observation / mortality / mortality
[35] = systemic / in life observation / mortality / mortality + systemic / in life observation / body weight / body weight gain
[36] = group: developmental, developmental / developmental malformation / bone / fragmented + systemic / in life observation / clinical signs / reduced body size
[37] = group: maternal, systemic / in life observation / body weight / body weight gain + systemic / in life observation / clinical signs / convulsions + systemic…
[38] = systemic / pathology gross / urinary bladder / thickened
[39] = systemic / in life observation / clinical signs / [other] + systemic / in life observation / body weight / body weight + systemic / in life …
[40] = systemic / in life observation / clinical signs / [other] + systemic / in life observation / body weight / body weight gain + systemic / in …
[41] = systemic / in life observation / body weight / body weight gain + systemic / pathology gross / kidney / enlarged + systemic / pathology …
[42] = group: cholinesterase, cholinesterase / cholinesterase / cholinesterase / plasma cholinesterase (che)
[43] = group: systemic, systemic / hematology / mean corpuscular hemoglobin concentration (mchc) / mean corpuscular hemoglobin concentration (mchc) + systemic / …
[44] = group: systemic, systemic / pathology microscopic / kidney / pigmentation
[45] = systemic / in life observation / body weight / body weight + systemic / in life observation / clinical signs / feces, discoloration + …
[46] = systemic / in life observation / clinical signs / fur (altered appearance)
[47] = systemic / in life observation / clinical signs / fur (altered appearance) + systemic / in life observation / clinical signs / skin …
[48] = group: developmental, developmental / developmental malformation / bone / supernumerary + developmental / developmental malformation / general / hemorrhage + …
[49] = group: maternal, reproductive / reproductive performance / resorptions / resorptions + systemic / in life observation / clinical signs / abnormal movements…
[50] = systemic / pathology microscopic / liver / hypertrophy + systemic / pathology microscopic / thyroid gland / hyperplasia
[51] = systemic / pathology microscopic / liver / hypertrophy + systemic / pathology microscopic / thyroid gland / hyperplasia + systemic / in life…
[52] = systemic / in life observation / body weight / body weight + systemic / pathology microscopic / kidney / adenoma + systemic / in life …
[53] = systemic / pathology microscopic / kidney / nephropathy
[54] = systemic / in life observation / clinical signs / grip strength + systemic / organ weight / liver / absolute + systemic / organ weight / …
[55] = systemic / organ weight / liver / absolute + systemic / pathology microscopic / liver / hypertrophy

O=Nc1ccc(Nc2ccccc2)cc1 [4-Nitrosodiphenylamine]
LOAEL [1, 27]: 638 mg/kg/day | NOAEL [1, 27]: < 638 mg/kg/day | LEL [1, 28]: 638 mg/kg/day | NEL [1, 28]: < 638 mg/kg/day | LOAEL ([2]; systemic / in life observation / body weight / body weight): 250 mg/kg/day | NOAEL ([2]; systemic / in life observation / body weight / body weight + systemic / pathology microscopic / liver / neoplastic nodule + systemic / …): 125 mg/kg/day | LEL [2, 29]: 125 mg/kg/day | NEL [2, 29]: < 125 mg/kg/day

O=C(NC(=O)c1c(F)cccc1F)Nc1ccc(Cl)cc1 [Diflubenzuron]
LEL [3, 30]: 200 mg/kg/day | LOAEL [3, 30]: 200 mg/kg/day | NEL [3, 31]: 40 mg/kg/day | NOAEL [3, 31]: 40 mg/kg/day | LEL [4, 32]: 3800 mg/kg/day | LOAEL [4, 32]: 3800 mg/kg/day | NEL [4, 32]: 360 mg/kg/day | NOAEL [4, 32]: 360 mg/kg/day | LEL [4, 33]: 36 mg/kg/day | LOAEL [4, 33]: 36 mg/kg/day | NEL [4, 33]: < 36 mg/kg/day | NOAEL [4, 33]: < 36 mg/kg/day

O=S1OCC2C(CO1)C1(Cl)C(Cl)=C(Cl)C2(Cl)C1(Cl)Cl (stereo not given) [Endosulfan]
NEL [5, 34]: 0.9 mg/kg/day | LEL [5, 35]: 2.7 mg/kg/day | LOAEL [5, 35]: > 2.7 mg/kg/day | NOAEL [5, 35]: ≥ 2.7 mg/kg/day | LEL [6, 36]: 6 mg/kg/day | LOAEL [6, 36]: 6 mg/kg/day | NEL [6, 36]: 2 mg/kg/day | NOAEL [6, 36]: 2 mg/kg/day | LEL [6, 37]: 6 mg/kg/day | LOAEL [6, 37]: 6 mg/kg/day | NEL [6, 37]: 2 mg/kg/day | NOAEL [6, 37]: 2 mg/kg/day | LOAEL [7, 34]: 2.6 mg/kg/day | NOAEL ([7]; systemic / in life observation / mortality / mortality + systemic / pathology gross / urinary bladder / thickened): 0.9 mg/kg/day | LEL [7, 38]: 0.3 mg/kg/day | NEL [7, 38]: < 0.3 mg/kg/day | LEL [8]: 0.27 mg/kg/day | LOAEL [8]: 0.27 mg/kg/day | NEL [8]: < 0.27 mg/kg/day | NOAEL [8]: < 0.27 mg/kg/day | NEL [9, 39]: 0.25 mg/kg/day | NOAEL [9, 39]: 0.25 mg/kg/day | LEL [9, 40]: 0.75 mg/kg/day | LOAEL [9, 40]: 0.75 mg/kg/day | NEL ([10]; systemic / in life observation / body weight / body weight gain + systemic / pathology gross / kidney / enlarged): 0.75 mg/kg/day | LEL [10, 41]: 3.75 mg/kg/day | LOAEL [10, 41]: > 3.75 mg/kg/day | NOAEL [10, 41]: ≥ 3.75 mg/kg/day | LEL [11, 42]: 18 mg/kg/day | LOAEL [11, 42]: > 18 mg/kg/day | NEL [11, 42]: 3 mg/kg/day | NOAEL [11, 42]: ≥ 18 mg/kg/day | LOAEL [11, 43]: 1.5 mg/kg/day | NOAEL [11, 43]: 0.5 mg/kg/day | LEL [11, 44]: 0.5 mg/kg/day | NEL [11, 44]: < 0.5 mg/kg/day | LEL [12]: 2.9 mg/kg/day | LOAEL [12]: 2.9 mg/kg/day | NEL [12]: 0.6 mg/kg/day | NOAEL [12]: 0.6 mg/kg/day | LEL [13]: 11.2 mg/kg/day | LOAEL [13]: > 22.2 mg/kg/day | NEL [13]: < 11.2 mg/kg/day | NOAEL [13]: ≥ 22.2 mg/kg/day

O=C([O-])c1[nH]n(-c2ccc(S(=O)(=O)[O-])cc2)c(=O)c1N=Nc1ccc(S(=O)(=O)[O-])cc1.[Na+].[Na+].[Na+] [FD&C Yellow 5]
LOAEL [14, 45]: > 2640 mg/kg/day | NOAEL [14, 45]: ≥ 2640 mg/kg/day | LEL [14, 46]: 48 mg/kg/day | NEL [14, 46]: < 48 mg/kg/day | LEL [15]: 771 mg/kg/day | LOAEL [15]: > 771 mg/kg/day | NEL [15]: 260 mg/kg/day | NOAEL [15]: ≥ 771 mg/kg/day | LEL [16]: 1060 mg/kg/day | LOAEL [16]: > 1060 mg/kg/day | NEL [16]: 568 mg/kg/day | NOAEL [16]: ≥ 1060 mg/kg/day | LEL [17]: 1000 mg/kg/day | LOAEL [17]: > 1000 mg/kg/day | NEL [17]: 600 mg/kg/day | NOAEL [17]: ≥ 1000 mg/kg/day | LOAEL [18, 45]: > 8100 mg/kg/day | NOAEL [18, 45]: ≥ 8100 mg/kg/day | LEL [18, 47]: 714 mg/kg/day | NEL [18, 47]: < 714 mg/kg/day

CN1CCC[C@H]1c1cccnc1 [Nicotine]
LEL [19]: 0.5 mg/kg/day | LOAEL [19]: > 0.5 mg/kg/day | NEL [19]: < 0.5 mg/kg/day | NOAEL [19]: ≥ 0.5 mg/kg/day | LEL ([20]; group: developmental, developmental / developmental malformation / bone / supernumerary): 12 mg/kg/day | LOAEL [20, 48]: > 20 mg/kg/day | NEL [20, 48]: 4 mg/kg/day | NOAEL [20, 48]: ≥ 20 mg/kg/day | LEL [20, 49]: 12 mg/kg/day | LOAEL [20, 49]: > 20 mg/kg/day | NEL [20, 49]: 4 mg/kg/day | NOAEL [20, 49]: ≥ 20 mg/kg/day | LEL [21]: 2.9 mg/kg/day | LOAEL [21]: > 4.4 mg/kg/day | NEL [21]: < 2.9 mg/kg/day | NOAEL [21]: ≥ 4.4 mg/kg/day

O=C1Nc2ccc(Cl)cc2C(c2ccccc2)=NC1O (stereo not given) [Oxazepam]
LOAEL [22, 50]: 12 mg/kg/day | NOAEL [22, 50]: < 12 mg/kg/day | LEL [22, 51]: 12 mg/kg/day | NEL [22, 51]: < 12 mg/kg/day | LOAEL [23, 52]: > 630 mg/kg/day | NOAEL [23, 52]: ≥ 630 mg/kg/day | LEL [23, 53]: 25 mg/kg/day | NEL [23, 53]: < 25 mg/kg/day | LOAEL [24, 54]: > 1400 mg/kg/day | NOAEL [24, 54]: ≥ 1400 mg/kg/day | LEL [24, 55]: 80 mg/kg/day | NEL [24, 55]: < 80 mg/kg/day | LEL [25]: 100 mg/kg/day | LOAEL [25]: > 1810 mg/kg/day | NEL [25]: < 100 mg/kg/day | NOAEL [25]: ≥ 1810 mg/kg/day | LEL [26]: 270 mg/kg/day | LOAEL [26]: 270 mg/kg/day | NEL [26]: < 270 mg/kg/day | NOAEL [26]: < 270 mg/kg/day
